According to patent publication US10493064B2, “IBS microbiota and uses thereof” (priority 2014, dated 2019):
Converted amounts (≈) assume the structure as drawn. Read-outs that look alike come from different tables or passages of the source.

How the values were obtained:
Staphylococcus isolates = experiment: Broth microdilution susceptibility (MIC) testing of Staphylococcus isolates cultured from skin swabs; format: cell-based; details: for resistance of S. aureus isolates: S. aureus isolates from skin swabs, OL or DB phases; for changes in MIC90 values: return to baseline by end of study; for MIC: read-out: maximum MIC concentration observed
[1] = system: Staphylococcus isolates cultured from stool; experiment: Susceptibility (MIC) testing of stool culture isolates: Staphylococcus; format: cell-based; details: end of Treatment 2 (OL) and end of Treatment 3 (DBR); returned to baseline in follow-up
Bacteroides = experiment: Susceptibility (MIC) testing of stool culture isolates: Bacteroides; format: cell-based
C. difficile = experiment: Susceptibility testing of stool culture isolates: C. difficile; format: cell-based, Clostridium difficile
stool microbiota = experiment: 16S rRNA gene sequencing of stool microbiota in IBS-D subjects (richness, diversity, evenness, family abundance); format: in vivo, human; details: for Shannon diversity: DB rifaximin group
Procedure: Stool aliquots from the selected subjects were shipped frozen for genomic sequencing. The samples were thawed at the time of testing. DNA was extracted from stool. Next-generation sequencing technology (Illumina HiSeq2500) was used to sequence the V4 region of the 16S ribosomal RNA. In order to do this, a 286 base pair (bp) region was amplified […] first using Illumina's adapter information, and then a second round of demultiplexing was performed. Approximately 4.6 billion total ([…] paired ends) sequences were generated from the selected stool samples. […] There were 172 separate families identified from subjects randomly selected. […] This list also included families of bacteria that contained known pathogens. The Shannon Diversity Index was used to determine the diversity (which takes into account not only the number of bacterial families present, but also the relative abundance of those families) of the stool microbiota at each visit.

S. aureus = experiment: Skin swab culture for S. aureus in IBS-D subjects; format: in vivo, human; details: OL or DB phases
Procedure: For the skin swab study, skin swab collection was performed for a subset of subjects (approximately 10% of the study population) at each of the following visits: Visits 3 and 4 (baseline and after two weeks of open-label rifaximin 550 mg TID [Treatment 2], respectively), Visits 6 and 7 (prior to and immediately after two weeks of double-blind retreatment [Treatment 3] with rifaximin 550 mg TID or placebo), and Visit 11 (End of Study). For each subject in this study, skin swabs were collected from the peri-rectum, nares, palms of hands, and forearms, and swabs were shipped immediately to the microbiology laboratory at ambient temperature in media-containing tubes. Skin swab cultures were conducted to isolate all Staphylococcus species.
Upon receipt at the microbiology laboratory, each skin swab was plated onto tryptic soy agar containing 5% sheep's blood and Columbia-colistin nalidixic acid agar with 5% sheep's blood to select for Gram-positive colonies. […] The inoculated plates were incubated at 35° C. in a 5-7% CO2 incubator, with plates examined at 24 and 48 h for bacterial growth.

[2] = Phase 3 repeat treatment study in IBS patients, infection rates; format: in vivo, human; details: following single or repeat treatment courses in IBS patients
Procedure: Subjects entered a Screening/Treatment 1 Phase which included a 10 (±3) day treatment, during which the subjects received single-blind placebo TID and completed a daily symptom diary. Following the Screening/Treatment 1 Phase, eligible subjects entered the Treatment 2 Phase and received open-label rifaximin 550 mg TID for 2 weeks with a 4 week treatment-free follow-up. At the end of the Treatment 2 Phase, subjects who achieved treatment success in both IBS-related abdominal pain and stool consistency during at least 2 weeks of the 4 week follow-up period were classified as responders and entered a treatment-free Maintenance Phase 1. Non-responders in the Treatment 2 Phase were withdrawn from the study to provide an enriched population of subjects who respond to treatment with rifaximin.
The treatment-free Maintenance Phase 1 varied in time (up to 18 weeks in total) and depended upon the time of symptom recurrence. […] Subjects with recurrence entered Treatment 3 Phase, also referred to as the Double-Blind (DB) Repeat Treatment Phase. In this phase, subjects were randomized 1:1 to receive either rifaximin 550 mg TID or placebo TID for 2 weeks with a 4-week treatment-free follow-up. All subjects from the Treatment 3 Phase then entered a 6-week maintenance phase (Maintenance Phase 2). […]

[3] = skin swab, OL Week 2, following rifaximin treatment
[4] = skin swab, OL follow-up Week 7 to Week 10
[5] = skin swab, OL follow-up Week 11 to Week 14

SMILES: CO[C@H]1/C=C/O[C@@]2(C)Oc3c(C)c(O)c4c(O)c(c(/C=N/N5CCN(C)CC5)c(O)c4c3C2=O)NC(=O)/C(C)=C\C=C\[C@H](C)[C@H](O)[C@@H](C)[C@@H](O)[C@@H](C)[C@H](OC(C)=O)[C@@H]1C [rifampin]
- changes in MIC50 values (Staphylococcus isolates): no changes
- resistant isolates (Staphylococcus isolates; DB placebo treated subjects, Day 1, peri-rectum): 1 isolates
- resistant isolates (Staphylococcus isolates; DB placebo treated subjects, Week 2, peri-rectum): 2 isolates
- resistant isolates (Staphylococcus isolates; DB placebo treated subjects, treatment period, all from peri-rectum): 3 isolates
- isolates with MIC value of ≥4 μg/mL (Staphylococcus isolates; OL Last Assessment Visits between Week 7 and Week 32, […]): 16 isolates
- resistance of S. aureus isolates (Staphylococcus isolates): no S. aureus isolates showed resistance
- MIC90 (Staphylococcus isolates; Staphylococcus, 24 h, […], DB placebo subjects, all Visits from Day 1 to DB Last Assessment): ≤ 0.015 µg/mL
- MIC90 (Staphylococcus isolates; Staphylococcus, 24 h, […], OL phase, Treatment 2 visit (Day 1), prior to rifaximin): ≤ 0.015 µg/mL
- MIC50 (Staphylococcus isolates; Staphylococcus, 24 h, […], OL phase, Treatment 2 visit (Day 1), prior to rifaximin, read-out: MIC50): ≤ 0.015 µg/mL
- MIC90 (Staphylococcus isolates; Staphylococcus, 336 h, […], OL phase, EOT2 Visit (Week 2), after rifaximin 550 mg TID 2 weeks): 16 µg/mL (≈ 19.4 µM)
- MIC50 (Staphylococcus isolates; Staphylococcus, 336 h, […], OL phase, EOT2 Visit (Week 2), after rifaximin 550 mg TID 2 weeks, read-out: MIC50): ≤ 0.015 µg/mL
- MIC90 (Staphylococcus isolates; Staphylococcus, […], OL Last Assessment Visits, Weeks 7 to 10): 0.5 µg/mL (≈ 0.608 µM)
- MIC90 (Staphylococcus isolates; Staphylococcus, […], OL Last Assessment Visits, from Week 11 onward): ≤ 0.015 µg/mL
- MIC50 (Staphylococcus isolates; […], DB placebo subjects, all Visits from Day 1 to DB Last Assessment): ≤ 0.015 µg/mL
- MIC range (Staphylococcus isolates; […], OL phase, Day 1 of Treatment 2): 0.015 to 0.12 µg/mL
- changes in MIC90 values (Staphylococcus isolates; […]): Transient changes
- resistant isolates cultured from the left lower arm swabs (Staphylococcus isolates; skin swab, OL Week 2): 3 isolates
- resistant isolates cultured from the palms of the hands (Staphylococcus isolates; skin swab, OL Week 2): 4 isolates
- resistant isolates on the peri-rectum (Staphylococcus isolates; skin swab, OL Week 2): 32 isolates
- isolates with a MIC value ≥4 μg/mL (resistant) (Staphylococcus isolates; [3]): 39 isolates
- isolates with an MIC value of <4 μg/mL (susceptible) (Staphylococcus isolates; [3]): 297 isolates
- resistant isolates (count) (Staphylococcus isolates; [4]): Seven
- resistant isolates, % of isolates (Staphylococcus isolates; [4]): 9.5%
- resistant isolates (count) (Staphylococcus isolates; [5]): 7 isolates
- resistant isolates, % of isolates (Staphylococcus isolates; [5]): 2.8%
- resistant isolates (Staphylococcus isolates; skin swab, OL follow-up Week 15 to Week 32): No rifampin resistant isolates
- change in MIC values [1]: Transient increases

SMILES: O=C(O)c1cn(C2CC2)c2cc(N3CCNCC3)c(F)cc2c1=O [ciprofloxacin]
- resistance of Staphylococcus isolates (Staphylococcus isolates; some skin swab isolates, did not substantially change with rifaximin treatment or time): low levels of resistance

SMILES: CO[C@H]1/C=C/O[C@@]2(C)Oc3c(C)c(O)c4c(O)c(c5c(nc6cc(C)ccn65)c4c3C2=O)NC(=O)/C(C)=C\C=C\[C@H](C)[C@H](O)[C@@H](C)[C@@H](O)[C@@H](C)[C@H](OC(C)=O)[C@@H]1C [rifaximin]
- resistance of S. aureus isolates (Staphylococcus isolates): no S. aureus isolates showed resistance
- MIC90 (Staphylococcus isolates; Staphylococcus, 24 h, skin swab isolates, DB phase Day 1 (Treatment 3), subjects randomized to placebo): 0.03 µg/mL (≈ 0.0382 µM)
- MIC90 (Staphylococcus isolates; Staphylococcus, 24 h, skin swab isolates, DB phase Day 1, subjects randomized to rifaximin): 0.03 µg/mL (≈ 0.0382 µM)
- MIC90 (Staphylococcus isolates; Staphylococcus, 24 h, skin swab staphylococcal isolates, OL phase, Treatment 2 visit (Day 1), prior to rifaximin): 0.03 µg/mL (≈ 0.0382 µM)
- MIC50 (Staphylococcus isolates; Staphylococcus, 24 h, skin swab staphylococcal isolates, OL phase, Treatment 2 visit (Day 1), prior to rifaximin, read-out: MIC50): 0.015 µg/mL (≈ 0.0191 µM)
- MIC90 (Staphylococcus isolates; Staphylococcus, 336 h, skin swab isolates, OL phase, EOT2 Visit (Week 2), after rifaximin 550 mg TID 2 weeks): 32 µg/mL (≈ 40.7 µM)
- MIC50 (Staphylococcus isolates; Staphylococcus, 336 h, skin swab isolates, OL phase, EOT2 Visit (Week 2), after rifaximin 550 mg TID 2 weeks, read-out: MIC50): 0.015 µg/mL (≈ 0.0191 µM)
- MIC90 (Staphylococcus isolates; Staphylococcus, skin swab isolates, DB rifaximin subjects, EOT3 Visit (Week 2)): 32 µg/mL (≈ 40.7 µM)
- MIC90 (Staphylococcus isolates; Staphylococcus, skin swab isolates, DB rifaximin subjects, Week 15 to Week 22): 0.5 µg/mL (≈ 0.636 µM)
- MIC90 (Staphylococcus isolates; Staphylococcus, skin swab isolates, DB rifaximin subjects, between Week 11 and Week 14): 64 µg/mL (≈ 81.4 µM)
- MIC90 (Staphylococcus isolates; Staphylococcus, skin swab isolates, DB rifaximin subjects, between Week 23 and Week 38): 0.06 µg/mL (≈ 0.0763 µM)
- MIC90 (Staphylococcus isolates; Staphylococcus, skin swab isolates, OL Last Assessment Visits, Weeks 7 to 10): 2 µg/mL (≈ 2.54 µM)
- MIC (Staphylococcus isolates; Staphylococcus, skin swab isolates, OL Last Assessment Visits, after decrease with time off rifaximin): 0.06 µg/mL (≈ 0.0763 µM)
- MIC (Staphylococcus isolates; Staphylococcus, skin swab isolates, OL Last Assessment Visits, before decrease with time off rifaximin): 64 µg/mL (≈ 81.4 µM)
- MIC90 (Staphylococcus isolates; Staphylococcus, skin swab isolates, OL Last Assessment Visits, from Week 11 onward): 0.03 µg/mL (≈ 0.0382 µM)
- MIC50 (Staphylococcus isolates; Staphylococcus, skin swab isolates, DB rifaximin subjects, DB Last Assessment Visits, read-out: MIC50): 0.015 to 0.06 µg/mL (≈ 0.0191 to 0.0763 µM)
- MIC50 (Staphylococcus isolates; skin swab isolates, DB phase Day 1 (Treatment 3), subjects randomized to placebo): 0.015 µg/mL (≈ 0.0191 µM)
- MIC50 (Staphylococcus isolates; skin swab isolates, DB phase Day 1, subjects randomized to rifaximin): 0.015 µg/mL (≈ 0.0191 µM)
- changes in MIC50 values (Staphylococcus isolates; skin swab staphylococcal isolates, overall with rifaximin treatment): no changes
- changes in MIC90 values (Staphylococcus isolates; skin swab staphylococcal isolates, overall): Transient changes
- change in MIC values [1]: Transient increases
- increases in the MIC50 or MIC90 (Bacteroides): within the range of MICs reported both at baseline
- susceptibility (C. difficile; all C. difficile cultured from stool): highly susceptible
- resistance of C. difficile isolates (C. difficile; isolates identified in stool samples): none of these isolates demonstrated rifaximin resistance
- evenness in the microbiota (stool microbiota; DB phase): unchanged
- richness of the microbiota (stool microbiota; DB phase, rifaximin treated subjects, Week 2, reversed in follow-up): decreased
- Shannon diversity (stool microbiota; after the 2 week treatment period): 1.698
- Shannon diversity (stool microbiota; baseline of DB phase): 1.786
- decrease in richness of the microbiota (stool microbiota; OL phase, baseline to Week 2): 1.235 families
- change in Shannon diversity of the stool microbiota (stool microbiota; OL phase, rifaximin 550 mg TID 2 weeks): no substantial change
- evenness of the microbiota (stool microbiota; OL phase, rifaximin treatment): not affected
- change in the number of S. aureus isolates (S. aureus): no increase
- infection rates [2]: no increased infection rates
